# Assay results as given in PMC4954776 (Nature chemical biology, 2013).
# Key:
# [1] = system: RAF family members (ARAF, BRAF, CRAF, KSR1, KSR2) kinase domain dimers; assay: Panel of RAF dimerization BRET biosensors; type: cell-based; conditions: for RAFKD dimer induction profile across biosensor panel: dose-response, BRAFKD and CRAFKD acceptor probes, Fig. 2c; for induction of RAF dimerization in kinase inhibitor library screen: collection of 184 compounds, Fig. 5a
# [2] = Solubility in aqueous solution; type: physicochemical
# [3] = biological target: BRAFKD T529M / BRAFKD T529M (Homo sapiens, UniProt P15056, T529M); assay: BRET dose-response, BRAFKD T529M gatekeeper mutant homodimerization; type: cell-based; conditions: Fig. 4g
# CRAFKD / BRAFKD [4] = biological target: T1, CRAFKD / BRAFKD (Homo sapiens, UniProt P04049+P15056); assay: BRET dose-response, CAAX-boxed CRAFKD/BRAFKD biosensor; type: cell-based; conditions: 10 μM; Fig. 4b
# CRAFKD / BRAFKD [5] = biological target: T1, CRAFKD / BRAFKD; assay: High-throughput chemical screen with CRAFKD/BRAFKD biosensor; type: cell-based; conditions: 10 μM screening concentration; Fig. 4a
# KSR1KD / MEK1 = KSR1KD / MEK1 (Homo sapiens, UniProt Q8IVT5); assay: BRET selectivity assay, KSR1KD/MEK1 pair; type: cell-based; conditions: 10 μM; Fig. 4b
# KSR1KD / MEK1, sequence (Q8IVT5 602-921): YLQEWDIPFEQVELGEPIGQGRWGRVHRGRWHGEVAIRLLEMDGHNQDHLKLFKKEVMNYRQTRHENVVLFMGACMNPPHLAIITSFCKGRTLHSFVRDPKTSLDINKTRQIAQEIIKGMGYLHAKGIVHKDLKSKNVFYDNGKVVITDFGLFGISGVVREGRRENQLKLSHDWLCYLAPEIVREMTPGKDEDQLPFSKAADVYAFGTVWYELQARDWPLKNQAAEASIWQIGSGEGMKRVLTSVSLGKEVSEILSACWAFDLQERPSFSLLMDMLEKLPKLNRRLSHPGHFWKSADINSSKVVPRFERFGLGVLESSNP
# KSR1KD / MEK1, sequence (Q02750 whole entry partner): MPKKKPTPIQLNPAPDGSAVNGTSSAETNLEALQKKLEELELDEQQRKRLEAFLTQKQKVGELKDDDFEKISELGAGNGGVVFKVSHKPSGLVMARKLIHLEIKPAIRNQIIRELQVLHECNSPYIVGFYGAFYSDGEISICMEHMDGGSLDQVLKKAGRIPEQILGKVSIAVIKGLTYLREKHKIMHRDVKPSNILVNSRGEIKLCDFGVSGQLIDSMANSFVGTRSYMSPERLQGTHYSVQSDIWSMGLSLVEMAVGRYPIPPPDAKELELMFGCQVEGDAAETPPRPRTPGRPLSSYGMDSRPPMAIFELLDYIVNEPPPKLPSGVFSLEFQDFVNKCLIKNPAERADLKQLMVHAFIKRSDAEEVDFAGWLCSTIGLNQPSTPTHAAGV
# BRAF/CRAF dimers = BRAF/CRAF dimers (Homo sapiens, UniProt P04049+P15056); assay: Co-immunoprecipitation of full-length GFP-CRAF and Flag-BRAF; type: cell-based; conditions: SB202190 and SB203580 10 μM; Fig. 4d
# BRAF/BRAF dimers = BRAF/BRAF dimers (Homo sapiens, UniProt P15056); assay: Co-immunoprecipitation of full-length BRAF/BRAF dimers; type: cell-based; conditions: 10 μM; Fig. 4e
# ERK phosphorylation = ERK phosphorylation in RAF-expressing HEK293T cells; type: cell-based; conditions: 2 μM, Fig. 4f
# [6] = biological target: BRAF kinase domain (residues 444 to 723, BRAF16mut) dimerization (Homo sapiens, UniProt P15056, A688R/F667E/I543A/I544S/I551K/K630S/K723G/L588N/L706S/L716E/P722S/Q562R/Q709R/S713E/Y673S); type: binding; conditions: 40 μM inhibitor, or 200 μM AMP-PNP / ADP with 200 μM MgCl2; Fig. 5e
# [7] = biological target: T2, PERK kinase domain dimerization (Mus musculus, UniProt Q9Z2B5, DEL661-875); assay: Sedimentation velocity analytical ultracentrifugation of PERK kinase domain; type: binding, Murine; conditions: saturating concentrations; 40 μM inhibitor, 500 μM ADP with 2 mM MgCl2
# T2 sequence (Q9Z2B5 with tags, fused parts or gaps DEL661-875): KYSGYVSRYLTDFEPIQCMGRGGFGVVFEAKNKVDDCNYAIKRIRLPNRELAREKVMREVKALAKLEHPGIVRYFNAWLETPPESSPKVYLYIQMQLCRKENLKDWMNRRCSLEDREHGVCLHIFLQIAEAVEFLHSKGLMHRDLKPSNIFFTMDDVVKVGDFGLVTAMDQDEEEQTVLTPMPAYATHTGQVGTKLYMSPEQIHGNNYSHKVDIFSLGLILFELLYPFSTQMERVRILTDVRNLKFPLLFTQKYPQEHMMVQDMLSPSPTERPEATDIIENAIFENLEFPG
# [8] = biological target: BRAFKD/BRAFKD (RlucII-BRAFKD-CAAX / GFP10-BRAFKD-CAAX) (Homo sapiens, UniProt P15056); assay: BRET titration curves, BRAFKD homodimerization biosensor; type: cell-based; conditions: Fig. 1c
# BRAFKD WT / BRAFKD WT = BRAFKD WT / BRAFKD WT (Homo sapiens, UniProt P15056); type: cell-based; conditions: 33 nM; Fig. 1e
# BRAFKD WT / BRAFKD R509H = BRAFKD WT / BRAFKD R509H (Homo sapiens, UniProt P15056, R509H); type: cell-based; conditions: 33 nM; Fig. 1e
# BRAF/KSR1 dimers = BRAF/KSR1 dimers (Homo sapiens, UniProt P15056+Q8IVT5); assay: BRET biosensor BRAF/KSR1 dimers; type: cell-based; conditions: Fig. 2c
# CRAF homodimers = CRAF homodimers (Homo sapiens, UniProt P04049); assay: BRET biosensor CRAF homodimers; type: cell-based; conditions: Fig. 2c
# CRAF homodimers, sequence (P04049 340-648): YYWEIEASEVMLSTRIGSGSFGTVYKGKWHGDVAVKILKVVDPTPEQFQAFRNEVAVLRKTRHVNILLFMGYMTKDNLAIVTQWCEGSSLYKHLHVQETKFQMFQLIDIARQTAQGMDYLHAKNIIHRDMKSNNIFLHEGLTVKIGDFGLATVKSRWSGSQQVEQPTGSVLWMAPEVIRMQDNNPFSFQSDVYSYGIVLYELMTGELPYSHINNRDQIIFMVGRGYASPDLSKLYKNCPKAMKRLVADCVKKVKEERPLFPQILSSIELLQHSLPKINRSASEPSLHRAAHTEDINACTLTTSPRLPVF
# CRAF homodimers, sequence (P04049 340-648): as above
# BRAFKD F595R = BRAFKD F595R (Homo sapiens, UniProt P15056, F595R); assay: BRET saturation curves, BRAF R spine mutant; type: cell-based; conditions: Fig. 6c
smiles,measurement,setting,value
CNC(=O)c1cc(Oc2ccc(NC(=O)Nc3ccc(Cl)c(C(F)(F)F)c3)cc2)ccn1 [Sorafenib],RAFKD dimer induction profile across biosensor panel,[1],relatively weak RAFKD dimer inducers
same,solubility in aqueous solution,[2],limited solubility
Cc1cn(-c2cc(NC(=O)c3ccc(C)c(Nc4nccc(-c5cccnc5)n4)c3)cc(C(F)(F)F)c2)cn1 [Nilotinib],induction of RAF dimerization in kinase inhibitor library screen,[1],significant inducers of RAF dimerization
Oc1ccc(-c2nc(-c3ccncc3)c(-c3ccc(F)cc3)[nH]2)cc1 [SB202190],effect of T529M gatekeeper mutant on inhibitor-induced BRAFKD homodimerization,[3],reduces
same,effect on CRAFKD/BRAFKD BRET signal,CRAFKD / BRAFKD [4],induces
same,rank among inducers of CRAFKD/BRAFKD dimerization in HTS,CRAFKD / BRAFKD [5],most potent inducer
same,effect on BRET produced by the KSR1KD/MEK1 pair,KSR1KD / MEK1,does not alter
same,BRAF/CRAF dimerization by co-immunoprecipitation,BRAF/CRAF dimers,increased BRAF/CRAF dimerization
same,BRAF homodimerization by co-immunoprecipitation,BRAF/BRAF dimers,induced BRAF homodimerization
same,ERK activity in RAF transfected cells,ERK phosphorylation,stimulated ERK activity
same,effect on BRAF kinase domain dimerization relative to apo state,[6],promoted dimerization
"Cn1cc(-c2ccc3c(c2)CCN3C(=O)Cc2cc(F)cc(C(F)(F)F)c2)c2c(N)ncnc21 [close structural analog of GSK2606414, 5-(1-{[3-Fluoro-5-(trifluoromethyl)phenyl]acetyl}-2,3-dihydro-1H-indol-5-yl)-7-methyl-7H-pyrrolo[2,3-d]pyrimidin-4-amine]",effect on PERK kinase domain dimerization,[7],strongly promoted dimerization
Nc1ncnc2c1ncn2[C@@H]1O[C@H](COP(=O)(O)OP(=O)(O)O)[C@@H](O)[C@H]1O [ADP],effect on BRAF kinase domain dimerization relative to apo state,[6],inhibited dimer formation
same,effect on PERK kinase domain dimerization,[7],weakly promoted dimerization
CCCS(=O)(=O)Nc1ccc(F)c(C(=O)c2c[nH]c3ncc(Cl)cc23)c1F [PLX4720],RAFKD dimer induction profile across biosensor panel,[1],relatively weak RAFKD dimer inducers
OCCn1cc(-c2ccc3c(c2)CC/C3=N\O)c(-c2ccncc2)n1 [GDC-0879],effect on BRET50 in titration experiments,[8],significantly reduced
same,time at which BRET induction plateaued,BRAFKD WT / BRAFKD WT,≤ 60 min
same,time at which activity (BRET induction) could first be detected,BRAFKD WT / BRAFKD WT,5 min
same,response of R509H mutant biosensor to drug,BRAFKD WT / BRAFKD R509H,insensitive
same,RAFKD dimer induction profile across biosensor panel,[1],strong and broad inducers
same,induction of BRAF/KSR1 dimers,BRAF/KSR1 dimers,strongly induced
Cc1ccc(NC(=O)c2cccc(C(C)(C)C#N)c2)cc1Nc1ccc2ncn(C)c(=O)c2c1 [AZ-628],effect on BRET50 in titration experiments,[8],significantly reduced
same,RAFKD dimer induction profile across biosensor panel,[1],strong and broad inducers
same,induction of CRAF homodimers,CRAF homodimers,strongly promoted
same,"dimerization of BRAF R spine mutant (F595R), BRET saturation curves",BRAFKD F595R,promote dimerization
"Cn1cc(-c2ccc3c(c2)CCN3C(=O)Cc2cccc(C(F)(F)F)c2)c2c(N)ncnc21 [GSK2606414, 7-Methyl-5-(1-{[3-(trifluoromethyl)phenyl]acetyl}-2,3-dihydro-1H-indol-5-yl)-7H-p yrrolo[2,3-d]pyrimidin-4-amine]",effect on PERK kinase domain dimerization,[7],potently promotes
C[S+]([O-])c1ccc(-c2nc(-c3ccncc3)c(-c3ccc(F)cc3)[nH]2)cc1 (centres unmarked) [SB203580],ERK activity in RAF transfected cells,ERK phosphorylation,stimulated ERK activity
Nc1ncnc2c1ncn2[C@@H]1O[C@H](COP(=O)(O)OP(=O)(O)NP(=O)(O)O)[C@@H](O)[C@H]1O [AMP-PNP],effect on BRAF kinase domain dimerization relative to apo state,[6],inhibited dimer formation
Cc1nc(Nc2ncc(C(=O)Nc3c(C)cccc3Cl)s2)cc(N2CCN(CCO)CC2)n1 [Dasatinib],induction of RAF dimerization in kinase inhibitor library screen,[1],significant inducers of RAF dimerization
